The values that follow come from ChEMBL document CHEMBL1268936, “Towards a systematic characterization of the antiprotozoal activity landscape of benzimidazole derivatives” (Bioorg Med Chem, 2010).

For one experiment, the system named is Giardia intestinalis. The experiment in a line: Antiprotozoal activity against Giardia intestinalis. The format is functional, organism-based. To be noted: Giardia duodenalis.
A further experiment deals with Trichomonas vaginalis. In words: Antiprotozoal activity against Trichomonas vaginalis. The format is functional, organism-based.

Take `CCCSc1ccc2c(c1)nc(C(F)(F)F)n2C`: the IC50 in the experiment with Giardia intestinalis was 10500 nM; in the experiment with Trichomonas vaginalis, 200 nM.
For `CCCSc1ccc2nc(C(F)(F)F)n(C)c2c1`, in that order: 1410 nM and 2570 nM.
For `Cn1c(C(F)(F)F)nc2cc(C(=O)c3ccccc3)ccc21`, in that order: 1100 nM and 29500 nM.
Consider `Cn1c(C(F)(F)F)nc2ccc(C(=O)c3ccccc3)cc21`, for which the IC50 was 1290 nM in the experiment on Giardia intestinalis and 10700 nM in the experiment with Trichomonas vaginalis.
Consider `FC(F)(F)C(F)(F)c1nc2cc(Cl)c(Cl)cc2[nH]1`, for which the IC50 in the experiment on Giardia intestinalis is 562 nM; with Trichomonas vaginalis it was 302 nM.
As to `O=[N+]([O-])c1cc2nc(C(F)(F)F)[nH]c2cc1[N+](=O)[O-]`, the IC50 in the experiment on Giardia intestinalis was 240 nM; in the experiment with Trichomonas vaginalis, 575 nM.
For `FC(F)(F)C(F)(F)c1nc2c(Br)c(Br)c(Br)c(Br)c2[nH]1`, in that order: 22.9 nM and 10000 nM.
For `FC(F)(F)c1nc2c(Br)c(Br)c(Br)c(Br)c2[nH]1`, in that order: 56.2 nM and 2 nM.
Regarding `FC(F)(F)c1nc2cc(Br)c(Br)cc2[nH]1`, the IC50 in the experiment on Giardia intestinalis is 120 nM; in the experiment with Trichomonas vaginalis, 219 nM.
